# Experiments:
# [1] = test system: freshly cut chips of lettuce and lotus roots; assay: NaHS solution fumigation of freshly cut chips of lettuce and lotus roots
# Description: (§1) Aqueous NaHS solutions (0.25-3.5 mmol/L) could release H2S gas (10^−12˜10^−10 mol/L). H2S rapidly, reached to the highest levels within several minutes and maintained a constant concentration. […] The NaHS solution was renewed every 48 or 72 hours. The NaHS solution was placed in a sealed container separated by a partition board with pores on it. The fresh cut vegetables including Broccoli, Lettuce, Lotus Root, Yam, Pumpkin, Sweet Potato, Potato, etc, and the fresh cut fruits Apple, Pear, Kiwi Fruit, Tomato, Hami Melon, and Peach were placed above the board, while the NaHS solution was placed under the board. Therefore, the fresh cut vegetables and fruits were fumigated with H2S gas released from NaHS in the solution.
# The control freshly cut chips of lettuce and lotus roots that were treated with water (0.0 mmol/L NaHS) lost their water and edibility after 15-24 hours, while the freshness of freshly cut chips of lettuce and lotus roots treated with 0.1 mmol/L-1.0 mmol/L NaHS solution was prolonged by 12-18 hours.
# [2] = test system: Mollusks, bees, grasshopper, drosophila, butterflies, and flies; settings: in vivo
# Description: First, it can be used in a closed space for the growth of crop and to protect the crop by its insecticidal, fungicidal, rodenticidal, pediculicidal, and biocidal actions.
# freshly cut broccoli = assay: NaHS solution fumigation of freshly cut broccoli
# Description: as §1
# The controls of fresh cut broccoli that were treated with water (0.0 mmol/L NaHS) solution lost their edibility on day 3, while the shelf life of freshly cut broccoli treated with 0.25 mmol/L-1.75 mmol/L NaHS solution was prolonged by 2-3 days. […] The control of freshly cut broccoli treated with 0.0 mmol/L NaHS solution underwent rot process (due to physiological senescence and microbe infection) at 4 days, and the moldy rate reached 100%. In contrast, the treatment with 1.5 mmol/L H2S donor, NaHS, inhibited the infection by micro-organisms, and no infection appeared until day 9.
# [3] = test system: freshly cut pears and peaches; assay: NaHS solution fumigation of freshly cut pears and peaches
# Description: as §1
# The control of freshly cut pears and peaches that were treated with water (0.0 mml/L NaHS), lost their edibility on day 2, while the shelf life of freshly cut pear and peach treated with 0.5 mmol/L-2.0 mmol/L NaHS solution was prolonged by 1-2 days. […] The control freshly cut pears and peaches treated with 0.0 mmol/L NaHS solution underwent rot process (due to physiological senescence and microbe infection) in 2.5 days, and the moldy rate reached 100% in 4 days.
structure (smiles),measurement,setting,value
"S [NaHS, sodium hydrosulfide]",freshness prolonged by,"[1]; 0.1 mmol/L-1.0 mmol/L NaHS, control lost water and edibility after 15-24 hours",12 to 18 h
same,freshness prolonged by,[1]; 0.8 mmol/L-1.0 mmol/L NaHS (best),18 h
same,death of pests,[2],die within seconds
same,shelf life prolonged by,"freshly cut broccoli; 0.25 mmol/L-1.75 mmol/L NaHS, control lost edibility on day 3",2 to 3 days
same,shelf life prolonged by,freshly cut broccoli; 1.5 mmol/L NaHS (most optimal),3 days
same,day until which no infection by micro-organisms appeared,"freshly cut broccoli; 1.5 mmol/L NaHS, control moldy rate 100% at 4 days",9 days
same,shelf life prolonged by,"[3]; 0.5 mmol/L-2.0 mmol/L NaHS, control lost edibility on day 2",1 to 2 days
same,shelf life prolonged by,[3]; 1.5 mmol/L NaHS (best),2 days
same,day until which micro-organisms did not appear,[3]; 1.5-2.0 mmol/L NaHS,5 days
same,moldy rate,"[3]; 1.5-2.0 mmol/L NaHS, after 10 days, control 100% in 4 days",80%

# — patent US20140342065A1 (priority 2012, published 2014)
